Data as given in patent US20120058057A1, “Anti-dandruff Agents” (MERCK PATENT GMBH, priority 2009, published 2012).

Tests used:
[1] = tested on: Staphylococcus epidermidis; experiment: Challenge test (Ph.Eur. 5.1.3), germ count over time, Staphylococcus epidermidis; type: cell-based; conditions: 1.0% in water
Malassezia furfur = experiment: Challenge test (Ph.Eur. 5.1.3), germ count over time, Malassezia furfur; type: cell-based; conditions: for total number of microorganisms (linear scale) / total number of microorganisms (log-scale): 1.0% in water
Protocol: The challenge testing procedure consists in challenging a non-contaminated antimicrobial product according to the invention with a prescribed inoculum of suitable microorganisms and storing the inoculated product at a prescribed temperature, e.g. room temperature. The number of organisms surviving in the test products is determined at specified intervals of time.
According to the description given in the European pharmacopea (Ph.Eur.5 Ausgabe, Grundwerk 2005, §5.1.3), the challenge tests are done following the procedure given thereafter.
Production of the Inoculum
A fresh stock culture of the specific micro-organsisms is inoculated on the surface of Agar medium B for bacteria and on the surface of Agar medium C for fungi. The bacteria culture will be incubated until sufficient sporulation (18-24h at 30-35° C.) In order to harvest the bacteria, the surface of the Agar media is washed out with a sterile solution containing sodium chloride (9 g/l) and poured into an adequate vessel. The concentration of germs in the suspension will be adjusted with the same solution to a concentration closed to 10^8 micro-organism/ml. Immediately after that action, a sample of this suspension is taken and the germ concentration in CFU/ml will be measured thanks to the method of membran filtration or counting on Agar plate. This value serves determining the value of the inoculum. The suspension must be used immediately.
Method of Determination of Germ Count
In order to determine the number of micro-organisms in the inoculated preparation (containing also the antimicrobial product according to invention), the same Agar medium as for the preparation of the inoculum will be used.
The aqueous suspension/solution containing 1% of the used ionic liquids (=verum) is inoculated with a suspension of the tests micro-organisms (Malassezia furfur) in such a way that a concentration from 10^5 to 10^6 microorganism/ml of the preparation is reached. The inoculated volume should not be above 1% v/v of the overall test solution. The suspension will be mixed in order to get a good homogenisation.
Water alone (=placebo) is treated in the same way. Antifungicidial activity of the verum will be detected once the survival rate of a microorganism for the verum is significantely lower than for the placebo.
The inoculated preparation is stored away from the daylight at 20-25° C. In order to begin the test, 1 g or 1 ml samples from the tests preparation (containing the inoculated micro-organsisms and the antimicrobial product according to the invention) will be taken at different intervals of time (in our case , 0.2 min, 5 min, 30 min, 1 h, 3 h, 6 h, 24 h) and the number of microorganisms will be measured using the Agar plate or the membrane filtration method. It is important to make sure that any remaining antimicrobial activity to be eliminated by dilution, filtration or specific inactivation.

[2] = Malassezia furfur, incubation 0 h
[3] = Malassezia furfur, incubation 1 h
[4] = Malassezia furfur, incubation 3 h
[5] = Malassezia furfur, incubation 6 h
[6] = Malassezia furfur, incubation 24 h

CC[N+](C)(C)CCOC [compound 1136, N-ethyl-N,N-dimethyl-2-methoxyethylammonium propionate]
total number of microorganisms (linear scale) ([1]; incubation 0 h): 210000
total number of microorganisms (log-scale) ([1]; incubation 0 h): 5.3
total number of microorganisms (linear scale) ([1]; incubation 1 h): 160000
total number of microorganisms (log-scale) ([1]; incubation 1 h): 5.2
total number of microorganisms (linear scale) ([1]; incubation 3 h): 180000
total number of microorganisms (log-scale) ([1]; incubation 3 h): 5.3
total number of microorganisms (linear scale) ([1]; incubation 6 h): 170000
total number of microorganisms (log-scale) ([1]; incubation 6 h): 5.2
total number of microorganisms (linear scale) ([1]; incubation 24 h): 22000
total number of microorganisms (log-scale) ([1]; incubation 24 h): 4.3
antifungicidial / microbicidal activity against Malassezia furfur (in words) (Malassezia furfur; Malassezia furfur): unique antifungicidial activity
total number of microorganisms (linear scale) (Malassezia furfur; [2]): 45000
total number of microorganisms (log-scale) (Malassezia furfur; [2]): 4.7
total number of microorganisms (linear scale) (Malassezia furfur; [3]): 41000
total number of microorganisms (log-scale) (Malassezia furfur; [3]): 4.6
total number of microorganisms (linear scale) (Malassezia furfur; [4]): 36000
total number of microorganisms (log-scale) (Malassezia furfur; [4]): 4.6
total number of microorganisms (linear scale) (Malassezia furfur; [5]): 33000
total number of microorganisms (log-scale) (Malassezia furfur; [5]): 4.5
total number of microorganisms (linear scale) (Malassezia furfur; [6]): 100
total number of microorganisms (log-scale) (Malassezia furfur; [6]): 2.0
selectivity of growth inhibition: Malassezia furfur versus desired skin microorganisms (e.g. Staphylococcus epidermidis) (Malassezia furfur; in words): selectively inhibit the growth of the undesired microorganism Malassezia furfur
